From article PMC3483369 (Molecular cell, 2012) come the findings set out here.

Common to all, as to assay type: biochemical
One assay has as its target GuaB (IMP dehydrogenase) (Bacillus subtilis, UniProt P21879). As to the kind of experiment: kinetic assay with purified GuaB.
A further assay deals with Gmk (guanylate kinase) (Bacillus subtilis, UniProt O34328). As to the kind of experiment: PK/LDH coupled enzymatic assay with purified Gmk.
A further assay deals with HprT (Bacillus subtilis, UniProt P37472). As to the kind of experiment: kinetic assay with purified HprT.
Sequence of HprT (P37472 whole entry): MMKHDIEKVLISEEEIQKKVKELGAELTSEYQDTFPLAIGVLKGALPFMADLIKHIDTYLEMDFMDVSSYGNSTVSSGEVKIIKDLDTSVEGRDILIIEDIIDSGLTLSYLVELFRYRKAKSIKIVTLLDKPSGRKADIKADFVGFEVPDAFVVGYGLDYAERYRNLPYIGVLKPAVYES

Sequence of Gmk (guanylate kinase) (O34328 whole entry): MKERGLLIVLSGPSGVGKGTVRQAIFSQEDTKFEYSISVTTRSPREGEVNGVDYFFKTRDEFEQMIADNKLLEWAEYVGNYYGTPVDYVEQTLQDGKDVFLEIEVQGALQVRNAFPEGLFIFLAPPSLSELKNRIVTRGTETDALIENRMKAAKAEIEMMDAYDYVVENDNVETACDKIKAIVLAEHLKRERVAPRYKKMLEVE
Sequence of GuaB (IMP dehydrogenase) (P21879 whole entry): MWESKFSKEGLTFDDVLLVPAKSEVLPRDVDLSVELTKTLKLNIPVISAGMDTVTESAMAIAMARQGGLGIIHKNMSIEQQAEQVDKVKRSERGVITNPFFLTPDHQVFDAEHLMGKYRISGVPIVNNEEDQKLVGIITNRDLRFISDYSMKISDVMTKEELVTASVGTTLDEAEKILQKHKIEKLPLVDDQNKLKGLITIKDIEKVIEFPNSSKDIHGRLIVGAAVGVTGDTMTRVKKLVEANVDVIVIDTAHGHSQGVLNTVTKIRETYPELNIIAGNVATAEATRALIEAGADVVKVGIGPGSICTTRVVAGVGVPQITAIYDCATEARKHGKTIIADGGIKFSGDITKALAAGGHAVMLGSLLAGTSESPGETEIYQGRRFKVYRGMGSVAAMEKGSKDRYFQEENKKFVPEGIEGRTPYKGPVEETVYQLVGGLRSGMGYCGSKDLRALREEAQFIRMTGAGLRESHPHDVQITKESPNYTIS

For the compound `Nc1nc2c(ncn2[C@@H]2O[C@H](COP(=O)(O)OP(=O)(O)O)[C@@H](OP(=O)(O)OP(=O)(O)O)[C@H]2O)c(=O)[nH]1` [ppGpp], the IC50 was around 500 µM on GuaB (IMP dehydrogenase), around 20 µM at Gmk (guanylate kinase) and around 11 µM on HprT.
Regarding `Nc1nc2c(ncn2[C@@H]2O[C@H](COP(=O)(O)OP(=O)(O)OP(=O)(O)O)[C@@H](OP(=O)(O)OP(=O)(O)O)[C@H]2O)c(=O)[nH]1` [pppGpp], the 50% inhibitory concentration (IC50) on GuaB (IMP dehydrogenase) was around 300 µM; on Gmk (guanylate kinase), around 20 µM; against HprT it was around 11 µM.
